In US5434266A, “Monosaccharide analog-based glycosidase inhibitors” (priority 1993, dated 1995):
Read-outs that look alike come from different tables or passages of the source.

Experiments:
jackbean α-mannosidase = target: T1, jackbean α-mannosidase (Canavalia ensiformis, UniProt C0HJB3); assay: Glycosidase inhibition / KI determination, jackbean α-mannosidase; assay type: biochemical
T1 construct: host or cells: jack bean
T1 sequence (C0HJB3 1-981): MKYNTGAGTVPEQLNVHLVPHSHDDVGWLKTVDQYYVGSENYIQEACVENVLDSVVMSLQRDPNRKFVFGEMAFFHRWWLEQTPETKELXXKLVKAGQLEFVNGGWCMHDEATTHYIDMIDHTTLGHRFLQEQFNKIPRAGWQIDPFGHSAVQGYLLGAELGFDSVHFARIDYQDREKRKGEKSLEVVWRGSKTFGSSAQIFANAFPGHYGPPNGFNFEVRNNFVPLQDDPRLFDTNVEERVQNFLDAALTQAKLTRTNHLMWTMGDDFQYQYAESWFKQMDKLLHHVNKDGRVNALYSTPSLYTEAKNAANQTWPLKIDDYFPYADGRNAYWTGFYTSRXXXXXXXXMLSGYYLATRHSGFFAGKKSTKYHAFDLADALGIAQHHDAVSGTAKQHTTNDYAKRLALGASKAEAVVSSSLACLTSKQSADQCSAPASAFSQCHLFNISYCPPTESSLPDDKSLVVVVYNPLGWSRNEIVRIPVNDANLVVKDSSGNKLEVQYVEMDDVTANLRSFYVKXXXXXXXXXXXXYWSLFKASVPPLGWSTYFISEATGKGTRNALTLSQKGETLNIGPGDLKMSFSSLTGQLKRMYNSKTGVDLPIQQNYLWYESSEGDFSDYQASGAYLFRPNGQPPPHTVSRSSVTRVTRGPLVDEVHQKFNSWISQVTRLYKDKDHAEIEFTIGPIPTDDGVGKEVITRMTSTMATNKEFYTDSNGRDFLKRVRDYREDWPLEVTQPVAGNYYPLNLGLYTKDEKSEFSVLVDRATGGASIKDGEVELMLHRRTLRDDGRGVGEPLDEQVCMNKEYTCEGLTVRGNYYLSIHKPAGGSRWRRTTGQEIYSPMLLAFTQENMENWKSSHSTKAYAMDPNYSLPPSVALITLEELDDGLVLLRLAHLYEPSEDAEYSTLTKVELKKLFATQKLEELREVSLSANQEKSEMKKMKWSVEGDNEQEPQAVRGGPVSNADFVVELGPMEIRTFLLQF
Protocol: (§1) pH for Enzyme Assays--Yeast e-glucosidase and green coffee bean α-galactosidase were assayed at pH 6.6. Almond β-glucosidase and jackbean α-mannosidase were assayed at pH 5.0. Bovine liver β-galactosidase was assayed at pH 7.0.
(§2) Working Enzyme Solutions--Typical enzyme concentrations in the assay buffer for inhibitor screening were as follows: yeast α-glucosidase, 10 μL of enzyme suspension in 2.00 mL pH 6.6 phosphate-citrate buffer; almond β-glucosidase, 25 μL of enzyme solution (0.4 mg solid enzyme in 70 μL pH 5.0 NaCl/NaOAc buffer) in 5.00 mL pH 5.0 NaCl/NaOAc buffer; jackbean α-mannosidase, 5-8 μL of enzyme suspension in 2.00 mL NaCl/NaOAc buffer; green coffee bean α galactosidase, 15 μL of enzyme suspension in 1.2 mL NaCl/NaOAc buffer; bovine liver β-galactosidase, 1.7 mg solid enzyme in 850 μL, NaCl/NaOAc buffer.
(§3) An acceptable concentration of enzyme, upon hydrolysis of the corresponding glycoside, should give an absorbance reading between 0.4 and 2.0 at 400 nm. A control assay was first performed to determine whether the enzyme concentration was acceptable. The assays involved addition of working enzyme solution (0.09 mL) and deionized water (0.18 mL) to buffer at the appropriate pH (0.09 mL, phosphate-citrate). The resulting solution was incubated at 37° C. for 5 minutes. Aliquots (0.1 mL) of this preincubation mixture was then added to three separate test tubes. Substrate (the corresponding p-nitrophenyl-D-glycoside, 0.1 mL, 10 mM in appropriate buffer), which had also been incubated at 37° C., was then added to each tube at thirty-second intervals. The hydrolyses were allowed to continue for 0.25 hours and then quenched by addition of glycine buffer (2.5 mL). The absorbance of the resulting solution was measure at 400 nm. Once this control run of the system gave an absorbance within 0.4-2.0, the potential inhibitors were assayed against this working enzyme solution at final inhibitor and substrate concentrations of 1 and 5 mM, respectively. In the inhibitor assays, deionized water was replaced by the inhibitor ([…] solution in deionized water). All inhibitors were tested in triplicate, with a control (by substituting the inhibitors with deionized water) and a standard.
(§4) Five substrate solutions (usually […]) and five inhibitor solutions (usually 0-200 μM) were prepared. To a 3-mL test tube were added buffer at the appropriate pH (0.28 mL, phosphate-citrate), working enzyme solution (0.28 mL) and inhibitor solution (0.56 mL). The solution was incubated at 37° C. for 5 minutes. Aliquots (0.1 mL) of this solution were then pipetted into ten separate test tubes. Substrate solution (0.1 mL) was then added to each tube at thirty-second intervals. Duplicate reactions were terminated by addition of glycine buffer (2.5 mL) at the end of 3, 6, 8, 10, and 12 minutes. The amound of released p-nitrophenolate was measured spectrophotometrically at 400 nm. The process was repeated for all combinations of inhibitor and substrate concentrations.
(§5) The velocities (V) of substrate hydrolysis at every combination of inhibitor [I] and substrate [S] concentrations were determined by plotting the absorbance values with respect to time and t]hen calculating the slopes of the lines. Double reciprocal plots of 1/V versus 1/[S] at different [I] were then generated. The slopes of each of these lines were then plotted against [I] and the data were fitted to a straight line. The [I]-intercept gave the enzyme-inhibitor dissociation constant. KI values were also calculated from Hanes-Woolf plots of [S]/V vs. [S] by replotttng the [S]/V intercepts versus [I] and ascertaining the [I] intercept. KI values in the Table represent an average of the two calculations.

[1] = target: T2, A. niger amyloglucosidase (Aspergillus niger, UniProt P69328); assay: Glycosidase inhibition, A. niger amyloglucosidase; assay type: biochemical; settings: pH 5.0, read-out: amylo-Glu pH 5.0 (class)
T2 construct: host or cells: Aspergillus niger
T2 sequence (P69328 25-640): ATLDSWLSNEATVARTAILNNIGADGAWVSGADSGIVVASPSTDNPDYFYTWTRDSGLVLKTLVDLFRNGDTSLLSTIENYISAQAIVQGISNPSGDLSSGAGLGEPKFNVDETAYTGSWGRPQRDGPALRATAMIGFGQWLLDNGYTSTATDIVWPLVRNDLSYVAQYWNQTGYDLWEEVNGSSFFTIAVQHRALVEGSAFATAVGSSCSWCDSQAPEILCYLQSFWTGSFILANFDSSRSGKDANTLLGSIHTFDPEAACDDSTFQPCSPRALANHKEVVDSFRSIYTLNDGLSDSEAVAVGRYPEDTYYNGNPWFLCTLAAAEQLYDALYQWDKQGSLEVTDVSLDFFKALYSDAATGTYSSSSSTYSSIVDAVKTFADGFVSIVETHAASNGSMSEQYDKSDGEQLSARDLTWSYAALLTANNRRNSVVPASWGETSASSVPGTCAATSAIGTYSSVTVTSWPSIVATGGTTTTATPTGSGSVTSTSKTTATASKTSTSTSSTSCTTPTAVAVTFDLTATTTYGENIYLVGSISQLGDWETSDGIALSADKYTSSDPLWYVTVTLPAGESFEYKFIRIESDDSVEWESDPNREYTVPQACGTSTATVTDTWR
Protocol: as §3
(§6) Five substrate solutions (usually […]) and five inhibitor solutions (usually 0-200 μM) were prepared. […] The amound of released p-nitrophenolate was measured spectrophotometrically at 400 nm. […]
(§7) The velocities (V) of substrate hydrolysis at every combination of inhibitor [I] and substrate [S] concentrations were determined by plotting the absorbance values with respect to time and t]hen calculating the slopes of the lines. […] KI values were also calculated from Hanes-Woolf plots of [S]/V vs. [S] by replotttng the [S]/V intercepts versus [I] and ascertaining the [I] intercept. […]

almond β-glucosidase = assay: Glycosidase inhibition / KI determination, almond β-glucosidase; assay type: biochemical; settings: pH 5.0, read-out: KI β-Glu pH 5.0
Protocol: as §1, §2, §3, §4, §5

[2] = target: T3, bovine liver β-galactosidase (Bos taurus, UniProt F1MNT6); assay: Glycosidase inhibition / KI determination, bovine liver β-galactosidase; assay type: biochemical
T3 construct: from tissue; host or cells: bovine liver
T3 sequence (F1MNT6 1-469): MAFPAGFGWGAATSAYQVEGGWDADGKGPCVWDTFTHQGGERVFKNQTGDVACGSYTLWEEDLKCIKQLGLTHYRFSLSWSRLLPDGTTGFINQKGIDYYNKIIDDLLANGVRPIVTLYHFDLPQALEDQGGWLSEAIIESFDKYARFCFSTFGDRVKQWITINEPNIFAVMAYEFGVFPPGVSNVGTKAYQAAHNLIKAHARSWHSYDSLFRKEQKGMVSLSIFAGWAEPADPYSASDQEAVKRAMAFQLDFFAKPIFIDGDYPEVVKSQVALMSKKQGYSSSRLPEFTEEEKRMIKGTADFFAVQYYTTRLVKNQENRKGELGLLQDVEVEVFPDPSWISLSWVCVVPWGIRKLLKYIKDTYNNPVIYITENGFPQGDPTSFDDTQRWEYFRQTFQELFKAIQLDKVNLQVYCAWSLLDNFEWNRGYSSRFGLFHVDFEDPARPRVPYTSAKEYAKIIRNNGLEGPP
Protocol: as §1, §2, §3, §4
as §7, with “lines. Double reciprocal plots of 1/V versus 1/[S] at different [I] were then generated.” for “lines.”

yeast α-glucosidase = target: T4, yeast α-glucosidase (Saccharomyces cerevisiae, UniProt P53341); assay: Glycosidase inhibition / KI determination, yeast α-glucosidase; assay type: biochemical
T4 construct: host or cells: yeast
T4 sequence (P53341 whole entry): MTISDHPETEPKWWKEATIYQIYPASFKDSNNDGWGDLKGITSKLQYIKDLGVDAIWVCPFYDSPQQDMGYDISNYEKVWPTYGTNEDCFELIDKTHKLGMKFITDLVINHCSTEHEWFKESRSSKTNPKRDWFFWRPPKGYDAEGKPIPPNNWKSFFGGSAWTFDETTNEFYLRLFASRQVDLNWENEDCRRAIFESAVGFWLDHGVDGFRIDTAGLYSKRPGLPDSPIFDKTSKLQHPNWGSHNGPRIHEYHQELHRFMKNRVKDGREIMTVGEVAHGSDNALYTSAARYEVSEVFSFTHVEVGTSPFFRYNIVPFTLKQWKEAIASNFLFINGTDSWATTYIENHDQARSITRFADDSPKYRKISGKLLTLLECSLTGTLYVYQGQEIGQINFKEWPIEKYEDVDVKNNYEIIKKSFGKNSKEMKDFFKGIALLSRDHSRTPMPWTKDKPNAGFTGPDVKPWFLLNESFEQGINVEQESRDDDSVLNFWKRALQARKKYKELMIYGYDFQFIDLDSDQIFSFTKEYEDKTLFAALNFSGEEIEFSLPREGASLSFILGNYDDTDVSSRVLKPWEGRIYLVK
Protocol: as §1, §2
(§8) An acceptable concentration of enzyme, upon hydrolysis of the corresponding glycoside, should give an absorbance reading between 0.4 and 2.0 at 400 nm. A control assay was first performed to determine whether the enzyme concentration was acceptable. The assays involved addition of working enzyme solution (0.09 mL) and deionized water (0.18 mL) to buffer at the appropriate pH (0.09 mL, phosphate-citrate). […] The absorbance of the resulting solution was measure at 400 nm. Once this control run of the system gave an absorbance within 0.4-2.0, the potential inhibitors were assayed against this working enzyme solution at final inhibitor and substrate concentrations of 1 and 5 mM, respectively. […]
as §6, §7

[3] = target: green coffee bean α-galactosidase (Coffea arabica, UniProt Q42656); assay: Glycosidase inhibition, green coffee bean α-galactosidase; assay type: biochemical; settings: coffeebean galactosidase
green coffee bean α-galactosidase, sequence (Q42656 16-378): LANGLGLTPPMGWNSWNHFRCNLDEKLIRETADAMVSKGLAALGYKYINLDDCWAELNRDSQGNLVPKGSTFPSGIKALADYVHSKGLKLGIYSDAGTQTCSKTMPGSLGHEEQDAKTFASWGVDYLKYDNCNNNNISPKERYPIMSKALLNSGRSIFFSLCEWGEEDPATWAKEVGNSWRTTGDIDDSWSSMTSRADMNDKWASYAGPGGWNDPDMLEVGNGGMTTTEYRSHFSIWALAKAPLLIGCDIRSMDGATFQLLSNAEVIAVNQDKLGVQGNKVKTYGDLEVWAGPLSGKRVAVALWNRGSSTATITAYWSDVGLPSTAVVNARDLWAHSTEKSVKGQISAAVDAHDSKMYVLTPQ
Protocol: as §1, §2, §8, §6, §7

galactosidases = settings: cited from earlier work
glucosidases = settings: cited from earlier work
HIV = settings: cited from earlier work
mannosidases = settings: cited from earlier work
[4] = pH 7.0, read-out: β-gal pH 7.0 (class)
[5] = pH 5.0, read-out: KI α-man pH 5.0
[6] = pH 7.0, read-out: KI β-gal pH 7.0

CN(C)C1=N[C@H](CO)[C@@H](O)[C@H](O)[C@H]1O [Compound 2, D-Gluco-N,N-Dimethylamidine]
Ki (jackbean α-mannosidase; pH 5.0, read-out: α-man pH 5.0 (class)): < 100 µM
Ki [1]: > 1000 µM
Ki (almond β-glucosidase): 83 µM
Ki [2, 4]: < 100 µM
α-Glu pH 6.6 (class) (yeast α-glucosidase): none
α-gal pH 6.6 (class) [3]: none

OC[C@H]1NC(O)[C@H](O)[C@@H](O)[C@H]1O (stereo partly drawn) [D, galactostatin]
galactosidase inhibition (galactosidases): inhibits galactosidases

NC1O[C@H](CO)[C@@H](O)[C@H](O)[C@H]1O (stereo partly drawn) [glucosylamine]
inhibition of α- and β-glucosidases (glucosidases; α- and β-glucosidases): inhibits both α- and β-glucosidases

NNC1=N[C@H](CO)[C@@H](O)[C@H](O)[C@H]1O [Compound 8, D-Glucoamidrazone]
Ki (jackbean α-mannosidase; [5]): 6.5 ± 3 µM
Ki (almond β-glucosidase): 8.4 ± 0.9 µM
Ki [2, 6]: 19 µM

OC[C@H]1NC(O)[C@H](O)[C@@H](O)[C@@H]1O (stereo partly drawn) [Nojirimycin, nojirimycin, reference compound]
α-man pH 5.0 (class) (jackbean α-mannosidase): moderate
Ki [1]: > 1000 µM
Ki (almond β-glucosidase): 380 µM
Ki [2, 4]: > 1000 µM
Ki (yeast α-glucosidase; pH 6.6, read-out: KI α-Glu pH 6.6): 13 µM
glucosidase inhibition (glucosidases): potent glucosidase inhibitors
α-gal pH 6.6 (class) [3]: mod-none

OC[C@H]1N=C(NO)[C@H](O)[C@@H](O)[C@@H]1O [Compound 13, D-Glucoamidoxime]
Ki (jackbean α-mannosidase; [5]): 10 ± 2 µM
Ki (almond β-glucosidase): 13.8 ± 3 µM

NNC1=N[C@H](CO)[C@@H](O)[C@H](O)[C@@H]1O [Compound 9, D-Mannoamidrazone]
Ki (jackbean α-mannosidase; [5]): 0.166 ± 0.013 µM
Ki (almond β-glucosidase): 205 ± 25 µM
Ki [2, 6]: 57 ± 2.5 µM

OC[C@H]1NC[C@H](O)[C@@H](O)[C@@H]1O [Compound B, 1-deoxynojirimycin]
effect on infectivity of HIV (HIV): interfere with the infectivity of HIV
glucosidase inhibition (glucosidases): potent glucosidase inhibitors

OC[C@H]1N=C(NO)[C@@H](O)[C@@H](O)[C@@H]1O [Compound 15, D-Mannoamidoxime]
Ki (jackbean α-mannosidase; [5]): 2 ± 0.1 µM

OC[C@H]1NC[C@@H](O)[C@@H](O)[C@@H]1O [C, 1-deoxymannojirimycin]
mannosidase inhibition (mannosidases): inhibits mannosidases

NC1=N[C@H](CO)[C@@H](O)[C@H](O)[C@H]1O [Compound 1, D-Glucoamidine]
Ki (jackbean α-mannosidase; [5]): 9 µM
Ki [1]: > 1000 µM
Ki (almond β-glucosidase): 8 µM
Ki [2, 4]: < 100 µM
α-Glu pH 6.6 (class) (yeast α-glucosidase): none
α-gal pH 6.6 (class) [3]: none
